In ChEMBL document CHEMBL1201862, “PubChem BioAssay data set” (2004):
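Five concentrations, 48 hours, 96-well plates. GI50 marks 50% less growth.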 The source made the active and inactive calls. Rule as the data show it: active = GI50 up to about 1.1 µM and inactive = higher.

Assays:
Assay in all cases: growth of human tumour cells (NCI), 48 h
[1] = test system: ACHN
[2] = test system: RPMI-8226
[3] = test system: RXF 393
[4] = test system: HT-29
[5] = test system: HCT-116
[6] = test system: A549
[7] = test system: OVCAR-5
[8] = test system: EKVX
[9] = test system: NCI/ADR-RES
[10] = test system: SR
[11] = test system: NCI-H226
[12] = test system: NCI-H522
[13] = test system: MDA-MB-435
[14] = test system: OVCAR-4
[15] = test system: HOP-62
[16] = test system: UACC-62
[17] = test system: 786-0
[18] = test system: COLO 205
[19] = test system: KM12
[20] = test system: LOX IMVI

Measured: GI50

COc1cccc(-c2c(-c3ccccc3)[nH]c(C)c2C(=O)ONC(=O)c2ccccc2)c1
inactive: [1] 2.99 µM | [2] 6.28 µM | [3] 4.35 µM | [4] 10 µM | [5] 3.98 µM | [6] 2.29 µM | [7] 9.06 µM | [8] 6.78 µM | [9] 8.93 µM | [10] 2.07 µM | [11] 10.4 µM | [12] 3.78 µM | [13] 3.34 µM | [14] 5.05 µM | [15] 2.72 µM | [16] 13.8 µM | [17] 4.44 µM | [18] 13.7 µM | [19] 13.7 µM | [20] 1.89 µM

CC(=O)Nc1nc(Cl)cc(NCC2(CO)CCC2)n1
inactive: [1] > 100 µM | [2] > 100 µM | [3] > 100 µM | [4] > 100 µM | [5] > 100 µM | [6] > 100 µM | [7] > 100 µM | [8] > 100 µM | [9] > 100 µM | [10] > 100 µM | [11] > 100 µM | [12] > 100 µM | [13] > 100 µM | [14] > 100 µM | [15] > 100 µM | [16] > 100 µM | [17] > 100 µM | [18] > 100 µM | [19] > 100 µM | [20] > 100 µM

CCN(/C=C1/C(=O)C(c2ccccc2)N(c2ccccc2)C1=O)CC (stereo not given)
inactive: [1] > 10 µM | [2] > 10 µM | [3] > 10 µM | [4] > 10 µM | [5] > 10 µM | [6] > 10 µM | [7] > 10 µM | [8] > 10 µM | [9] > 10 µM | [10] > 10 µM | [11] > 10 µM | [12] > 10 µM | [13] > 10 µM | [14] > 10 µM | [15] > 10 µM | [16] > 10 µM | [17] > 10 µM | [18] > 10 µM | [19] > 10 µM | [20] > 10 µM

O=C1C(O)=C(C(CCc2ccccc2)C2=C(O)C(=O)c3ccccc3C2=O)C(=O)c2ccccc21
inactive: [1] 65.9 µM | [2] 16.1 µM | [3] > 100 µM | [4] 18.8 µM | [5] 40 µM | [6] 33 µM | [7] > 100 µM | [8] 61.1 µM | [9] > 100 µM | [10] 16.9 µM | [11] > 100 µM | [12] 23.8 µM | [13] 13.9 µM | [14] 67.9 µM | [15] 28.8 µM | [16] 13.7 µM | [17] > 100 µM | [18] 28.4 µM | [19] > 100 µM | [20] 5.26 µM

CC(=O)N[C@@H](Cc1ccc(O)cn1)C(=O)NCc1ccc2c(c1)OCO2
inactive: [1] > 100 µM | [2] > 100 µM | [3] > 100 µM | [4] > 100 µM | [5] > 100 µM | [6] > 100 µM | [7] > 100 µM | [8] > 100 µM | [9] > 100 µM | [10] > 100 µM | [11] > 100 µM | [12] > 100 µM | [13] > 100 µM | [14] > 100 µM | [15] > 100 µM | [16] > 100 µM | [17] > 100 µM | [18] > 100 µM | [19] > 100 µM | [20] > 100 µM
